Results published in patent publication US8952024B2, “Herbicidal pyrimidone derivatives” (E I du Pont de Nemours and Company, priority 2009, dated 2015).

Experiments:
Assay type in all cases: in vivo
[1] = system: goosegrass (Eleusine indica); test: Test B pre-/postemergence plant response; conditions: for Plant response rating, Goosegrass: Postemergence; for Goosegrass plant response rating (0 to 100 scale): 62 g ai/ha, postemergence, 0 is no effect, 100 is complete control
Summary of the method: (§1)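 Steps: sow seed in loam–sand soil and spray preemergence, or grow plants in peat-based medium to 1–4 leaves (2–18 cm) and spray postemergence; formulation is non-phytotoxic solvent plus surfactant; hold in greenhouse 13–15 days; score visually vs controls, 0 = no effect, 100 = complete control.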

[2] = system: morningglory (Ipomoea coccinea); test: Test B pre-/postemergence plant response; conditions: for Plant response rating, Morningglory: Postemergence; for Morningglory plant response rating (0 to 100 scale): 62 g ai/ha, postemergence, 0 is no effect, 100 is complete control
Summary of the method: as §1

[3] = system: johnsongrass (Sorghum halepense); test: Test B pre-/postemergence plant response; conditions: for Plant response rating, Johnsongrass: Postemergence; for Johnsongrass plant response rating (0 to 100 scale): 62 g ai/ha, postemergence, 0 is no effect, 100 is complete control
Summary of the method: as §1

[4] = system: giant foxtail (Setaria faberii); test: Test B pre-/postemergence plant response; conditions: for Plant response rating, Foxtail, Giant: Postemergence; for Foxtail, Giant plant response rating (0 to 100 scale): 62 g ai/ha, postemergence, 0 is no effect, 100 is complete control
Summary of the method: as §1

[5] = system: woolly cupgrass (Eriochloa villosa); test: Test B pre-/postemergence plant response; conditions: for Plant response rating, Cupgrass, Woolly: Postemergence; for Cupgrass, Woolly plant response rating (0 to 100 scale): 62 g ai/ha, postemergence, 0 is no effect, 100 is complete control
Summary of the method: as §1

[6] = system: wheat (Triticum aestivum); test: Test B pre-/postemergence plant response; conditions: for Plant response rating, Wheat: Postemergence; for Wheat plant response rating (0 to 100 scale): 62 g ai/ha, postemergence, 0 is no effect, 100 is complete control
Summary of the method: as §1

[7] = system: pigweed (Amaranthus retroflexus); test: Test A pre-/postemergence plant response
Summary of the method: (§2)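 Injury was scored visually after roughly ten days against untreated controls, 0 = no effect, 100 = complete control. Test chemicals in a surfactant-containing non-phytotoxic solvent were sprayed either onto soil preemergence or onto one- to two-leaf, 2–10 cm plants postemergence.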

[8] = system: morningglory (Ipomoea spp.); test: Test A pre-/postemergence plant response
Summary of the method: as §2

[9] = system: umbrella sedge (Cyperus difformis); test: Test B flooded paddy test; conditions: for Plant response rating, Flood, Sedge, Umbrella: 250 g ai/ha, flooded paddy test, visual rating on 0 to 100 scale (0 no effect, 100 complete control) after 13 to 15 days; for Plant response rating, Sedge, Umbrella: Flood (flooded paddy test), 13 to 15 days; for Sedge, Umbrella plant response rating: Flood, 31 g ai/ha, scale 0 to 100 (0 no effect, 100 complete control)
Summary of the method: (§3)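 Ratings are visual, 0–100 (100 = complete control), taken versus untreated controls 13 to 15 days after treatment in the greenhouse. Compound went straight into paddy water held 3 cm above soil, applied to 2-leaf-stage plants of four species.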

[10] = system: ducksalad (Heteranthera limosa); test: Test B flooded paddy test; conditions: for Plant response rating, Flood, Ducksalad: 250 g ai/ha, flooded paddy test, visual rating on 0 to 100 scale (0 no effect, 100 complete control) after 13 to 15 days; for Plant response rating, Ducksalad: Flood (flooded paddy test), 13 to 15 days; for Ducksalad plant response rating: Flood, 31 g ai/ha, scale 0 to 100 (0 no effect, 100 complete control)
Summary of the method: as §3

[11] = system: barnyardgrass (Echinochloa crus-galli); test: Test B flooded paddy test; conditions: for Plant response rating, Flood, Barnyardgrass: 250 g ai/ha, flooded paddy test, visual rating on 0 to 100 scale (0 no effect, 100 complete control) after 13 to 15 days; for Plant response rating, Barnyardgrass: Flood (flooded paddy test), 13 to 15 days; for Barnyardgrass plant response rating: Flood, 31 g ai/ha, scale 0 to 100 (0 no effect, 100 complete control)
Summary of the method: as §3

rice (Oryza sativa) = test: Test B flooded paddy test; conditions: for Plant response rating, Flood, Rice: 250 g ai/ha, flooded paddy test, visual rating on 0 to 100 scale (0 no effect, 100 complete control) after 13 to 15 days; for Plant response rating, Rice: Flood (flooded paddy test), 13 to 15 days; for Rice plant response rating: Flood, 31 g ai/ha, scale 0 to 100 (0 no effect, 100 complete control)
Summary of the method: as §3

[12] = 31 g ai/ha, 0 to 100 scale (0 no effect, 100 complete control)
[13] = 125 g ai/ha, scale 0 to 100 (0 no effect, 100 complete control)
[14] = Postemergence, 125 g ai/ha, 0 to 100 scale where 0 is no effect and 100 is complete control
[15] = Postemergence, 500 g ai/ha, 0 to 100 scale, 0 = no effect, 100 = complete control, approx. ten days
[16] = Preemergence, 125 g ai/ha, 0 to 100 scale, 0 = no effect, 100 = complete control
[17] = Preemergence, 500 g ai/ha, visual injury, 0 to 100 scale (0 no effect, 100 complete control), approx. ten days
[18] = 62 g ai/ha, scale of 0 to 100 where 0 is no effect and 100 is complete control
[19] = 250 g ai/ha, scale 0 to 100 (0 no effect, 100 complete control)
[20] = 125 g ai/ha, scale 0 to 100, 0 is no effect, 100 is complete control
[21] = 250 g ai/ha, scale 0 to 100 (0 no effect, 100 complete control), 13 to 15 days

## CCn1c(-c2cc(F)cc(F)c2)ncc(C(=O)C2=C(O)CCCC2=O)c1=O [Compound 122]
[1]; 16 g ai/ha, 0 to 100 scale
  Plant response rating, Goosegrass: 10
[1]; 13 to 15 days
  Goosegrass plant response rating (0 to 100 scale): 65
[1]; [12]
  Plant response rating, Goosegrass: 40
[1]; [13]
  Plant response rating, Goosegrass: 70
[2]; 16 g ai/ha, 0 to 100 scale
  Plant response rating, Morningglory: 55
[2]; 13 to 15 days
  Morningglory plant response rating (0 to 100 scale): 75
[2]; [12]
  Plant response rating, Morningglory: 60
[2]; [13]
  Plant response rating, Morningglory: 85
[3]; 16 g ai/ha, 0 to 100 scale
  Plant response rating, Johnsongrass: 20
[3]; 13 to 15 days
  Johnsongrass plant response rating (0 to 100 scale): 65
[3]; [12]
  Plant response rating, Johnsongrass: 45
[3]; [13]
  Plant response rating, Johnsongrass: 75
[4]; 16 g ai/ha, 0 to 100 scale
  Plant response rating, Foxtail, Giant: 65
[4]; 13 to 15 days
  Foxtail, Giant plant response rating (0 to 100 scale): 75
[4]; [12]
  Plant response rating, Foxtail, Giant: 70
[4]; [13]
  Plant response rating, Foxtail, Giant: 80
[5]; 16 g ai/ha, 0 to 100 scale
  Plant response rating, Cupgrass, Woolly: 65
[5]; 13 to 15 days
  Cupgrass, Woolly plant response rating (0 to 100 scale): 70
[5]; [12]
  Plant response rating, Cupgrass, Woolly: 65
[5]; [13]
  Plant response rating, Cupgrass, Woolly: 75
[6]; 16 g ai/ha, 0 to 100 scale
  Plant response rating, Wheat: 5
[6]; 13 to 15 days
  Wheat plant response rating (0 to 100 scale): 30
[6]; [12]
  Plant response rating, Wheat: 15
[6]; [13]
  Plant response rating, Wheat: 50
[7]; [14]
  Plant response rating, Pigweed: 100
[7]; [15]
  Plant response rating, Pigweed: 100
[7]; [16]
  Plant response rating, Pigweed: 100
[7]; [17]
  Plant response rating, Pigweed: 100
[8]; [14]
  Plant response rating, Morningglory: 90
[8]; [15]
  Plant response rating, Morningglory: 100
[8]; [16]
  Plant response rating, Morningglory: 40
[8]; [17]
  Plant response rating, Morningglory: 80
[9]
  Plant response rating, Flood, Sedge, Umbrella: 45
[9]; [18]
  Plant response rating, Sedge, Umbrella: 20
[10]
  Plant response rating, Flood, Ducksalad: 0
[10]; [18]
  Plant response rating, Ducksalad: 0
[11]
  Plant response rating, Flood, Barnyardgrass: 40
[11]; [18]
  Plant response rating, Barnyardgrass: 20
Rice (Oryza sativa)
  Plant response rating, Flood, Rice: 15
Rice (Oryza sativa); [18]
  Plant response rating, Rice: 0

## COCCCn1c(-c2cccc(F)c2)ncc(C(=O)C2=C(O)CCCC2=O)c1=O [Compound 126]
[1]; 13 to 15 days
  Goosegrass plant response rating (0 to 100 scale): 70
[1]; [12]
  Plant response rating, Goosegrass: 65
[1]; [13]
  Plant response rating, Goosegrass: 75
[1]; [19]
  Plant response rating, Goosegrass: 85
[2]; 13 to 15 days
  Morningglory plant response rating (0 to 100 scale): 85
[2]; [12]
  Plant response rating, Morningglory: 75
[2]; [13]
  Plant response rating, Morningglory: 100
[2]; [19]
  Plant response rating, Morningglory: 100
[3]; 13 to 15 days
  Johnsongrass plant response rating (0 to 100 scale): 65
[3]; [12]
  Plant response rating, Johnsongrass: 65
[3]; [13]
  Plant response rating, Johnsongrass: 85
[3]; [19]
  Plant response rating, Johnsongrass: 90
[4]; 13 to 15 days
  Foxtail, Giant plant response rating (0 to 100 scale): 80
[4]; [12]
  Plant response rating, Foxtail, Giant: 70
[4]; [13]
  Plant response rating, Foxtail, Giant: 85
[4]; [19]
  Plant response rating, Foxtail, Giant: 90
[5]; 13 to 15 days
  Cupgrass, Woolly plant response rating (0 to 100 scale): 75
[5]; [12]
  Plant response rating, Cupgrass, Woolly: 65
[5]; [13]
  Plant response rating, Cupgrass, Woolly: 85
[5]; [19]
  Plant response rating, Cupgrass, Woolly: 90
[6]; 13 to 15 days
  Wheat plant response rating (0 to 100 scale): 15
[6]; [12]
  Plant response rating, Wheat: 5
[6]; [13]
  Plant response rating, Wheat: 35
[7]; [14]
  Plant response rating, Pigweed: 90
[7]; [15]
  Plant response rating, Pigweed: 100
[7]; [16]
  Plant response rating, Pigweed: 100
[7]; [17]
  Plant response rating, Pigweed: 100
[8]; [14]
  Plant response rating, Morningglory: 100
[8]; [15]
  Plant response rating, Morningglory: 100
[8]; [16]
  Plant response rating, Morningglory: 70
[8]; [17]
  Plant response rating, Morningglory: 90
[9]
  Plant response rating, Flood, Sedge, Umbrella: 85
  Sedge, Umbrella plant response rating: 50
[9]; [18]
  Plant response rating, Sedge, Umbrella: 70
[9]; [20]
  Plant response rating, Sedge, Umbrella: 80
[10]
  Plant response rating, Flood, Ducksalad: 85
  Ducksalad plant response rating: 75
[10]; [18]
  Plant response rating, Ducksalad: 80
[10]; [20]
  Plant response rating, Ducksalad: 85
[11]
  Plant response rating, Flood, Barnyardgrass: 75
  Barnyardgrass plant response rating: 20
[11]; [18]
  Plant response rating, Barnyardgrass: 45
[11]; [20]
  Plant response rating, Barnyardgrass: 60
Rice (Oryza sativa)
  Plant response rating, Flood, Rice: 15
  Rice plant response rating: 0
Rice (Oryza sativa); [18]
  Plant response rating, Rice: 0
Rice (Oryza sativa); [20]
  Plant response rating, Rice: 0

## CCCn1c(-c2cccc(F)c2)ncc(C(=O)C2=C(O)CCCC2=O)c1=O [Compound 127]
[1]; 13 to 15 days
  Goosegrass plant response rating (0 to 100 scale): 75
[1]; [12]
  Plant response rating, Goosegrass: 65
[1]; [13]
  Plant response rating, Goosegrass: 75
[1]; [21]
  Plant response rating, Goosegrass: 85
[2]; 13 to 15 days
  Morningglory plant response rating (0 to 100 scale): 80
[2]; [12]
  Plant response rating, Morningglory: 65
[2]; [13]
  Plant response rating, Morningglory: 90
[2]; [21]
  Plant response rating, Morningglory: 98
[3]; 13 to 15 days
  Johnsongrass plant response rating (0 to 100 scale): 70
[3]; [12]
  Plant response rating, Johnsongrass: 65
[3]; [13]
  Plant response rating, Johnsongrass: 80
[3]; [21]
  Plant response rating, Johnsongrass: 95
[4]; 13 to 15 days
  Foxtail, Giant plant response rating (0 to 100 scale): 85
[4]; [12]
  Plant response rating, Foxtail, Giant: 80
[4]; [13]
  Plant response rating, Foxtail, Giant: 85
[4]; [21]
  Plant response rating, Foxtail, Giant: 90
[5]; 13 to 15 days
  Cupgrass, Woolly plant response rating (0 to 100 scale): 75
[5]; [12]
  Plant response rating, Cupgrass, Woolly: 75
[5]; [13]
  Plant response rating, Cupgrass, Woolly: 85
[5]; [21]
  Plant response rating, Cupgrass, Woolly: 85
[6]; 13 to 15 days
  Wheat plant response rating (0 to 100 scale): 10
[6]; [12]
  Plant response rating, Wheat: 5
[6]; [13]
  Plant response rating, Wheat: 25
[6]; [21]
  Plant response rating, Wheat: 40
[7]; [14]
  Plant response rating, Pigweed: 90
[7]; [15]
  Plant response rating, Pigweed: 100
[7]; [16]
  Plant response rating, Pigweed: 100
[7]; [17]
  Plant response rating, Pigweed: 100
[8]; [14]
  Plant response rating, Morningglory: 90
[8]; [15]
  Plant response rating, Morningglory: 100
[8]; [16]
  Plant response rating, Morningglory: 10
[8]; [17]
  Plant response rating, Morningglory: 80
[9]
  Plant response rating, Flood, Sedge, Umbrella: 80
  Sedge, Umbrella plant response rating: 0
[9]; [18]
  Plant response rating, Sedge, Umbrella: 20
[9]; [20]
  Plant response rating, Sedge, Umbrella: 60
[10]
  Plant response rating, Flood, Ducksalad: 80
  Ducksalad plant response rating: 0
[10]; [18]
  Plant response rating, Ducksalad: 30
[10]; [20]
  Plant response rating, Ducksalad: 60
[11]
  Plant response rating, Flood, Barnyardgrass: 75
  Barnyardgrass plant response rating: 0
[11]; [18]
  Plant response rating, Barnyardgrass: 40
[11]; [20]
  Plant response rating, Barnyardgrass: 65
Rice (Oryza sativa)
  Plant response rating, Flood, Rice: 35
  Rice plant response rating: 0
Rice (Oryza sativa); [18]
  Plant response rating, Rice: 15
Rice (Oryza sativa); [20]
  Plant response rating, Rice: 25
